Assays:
[1] = Relative bioavailability study in fasted beagle dogs; format: in vivo; conditions: 1 mg/kg, hard gelatin capsules each containing 10 mg compound X
Description: Hard gelatin capsules each containing 10 mg compound X were administered to 8 dogs in a 4-way latin square design; the dogs were fed 6 hours post administration of the capsules, and blood levels of compound X were determined over 48 hours.

Dissolution rate test = format: physicochemical; conditions: stirring in 0.2 wt % sodium dodecylsulfate in water at 37° C., 10 mg compound Y, after 30 minutes
Description: Forms E, F and G are tested for respective dissolution rates. […] 92% available compound Y is released from Form E. This compares with approximately 5% release after 30 minutes from an equivalent amount of crystalline compound Y.

SMILES | Median peak levels [1] [ng/mL] | median AUC levels of 0-48 hr [1] | available compound Y released and dissolved (Dissolution rate test)
CO[C@H]1C[C@@H]2CC[C@@H](C)[C@@](O)(O2)C(=O)C(=O)N2CCCC[C@H]2C(=O)O[C@H]([C@H](C)C[C@@H]2CC[C@@H](OCCO)[C@H](OC)C2)CC(=O)[C@H](C)/C=C(\C)[C@@H](O)[C@@H](OC)C(=O)[C@H](C)C[C@H](C)/C=C/C=C/C=C/1C [Compound X, 40-O-(2-hydroxy)ethyl rapamycin] | 140 | ca. 1600 ng.h/ml | –
CC[C@@H]1/C=C(\C)C[C@H](C)C[C@H](OC)[C@H]2O[C@@](O)(C(=O)C(=O)N3CCCC[C@H]3C(=O)O[C@H](/C(C)=C/[C@@H]3CC[C@H](Cl)[C@H](OC)C3)[C@H](C)[C@@H](O)CC1=O)[C@H](C)C[C@@H]2OC [crystalline compound Y, 33-epi-chloro-33-desoxy-ascomycin] | – | – | approximately 5%
